According to PubChem BioAssay AID330 (DTP/NCI, 2004):
“And” between values parts separate entries of the source, which are not always exact repeats. Identical values can stand only once. Toxic doses and inconclusive results are not listed.

Test system: P388 leukemia ip, CD2F1 mice, survival T/C
Assay: NCI In Vivo Anticancer Drug Screen. Data for tumor model P388 Leukemia (intraperitoneal) in CD2F1 (CDF1) mice
Conditions: endpoint: median survival time, higher = longer survival
How it was run: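 Mice carrying the transplanted tumor received test compound or vehicle. Survival was recorded in each group, and the value is the treated-group measurement divided by that of the vehicle-treated control group.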

[1] = dose: 50.0 mg/kg/injection, schedule: Q01DX009 (ip), vehicle: saline with Tween-80
[2] = dose: 100.0 mg/kg/injection, schedule: Q01DX009 (ip), vehicle: saline with Tween-80
[3] = dose: 50.0 mg/kg/injection, schedule: Q01DX009 (ip), vehicle: Klucel (hydroxypropylcellulose) (HPC)
[4] = dose: 100.0 mg/kg/injection, schedule: Q01DX009 (ip), vehicle: Klucel (hydroxypropylcellulose) (HPC)

Q: With COc1cc2c(cc1-c1coc3cc(O)ccc3c1=O)OCO2 as the compound, how does the T/C (dose: 1.1 mg/kg/injection, schedule: Q01DX005 (ip), vehicle: Klucel (hydroxypropylcellulose) (HPC)) read?
A: 90 % of control

Q: What about the T/C (dose: 2.13 mg/kg/injection, schedule: Q01DX005 (ip), vehicle: Klucel (hydroxypropylcellulose) (HPC)) of the same compound?
A: 86 % of control

Q: And the T/C (dose: 4.25 mg/kg/injection, schedule: Q01DX005 (ip), vehicle: Klucel (hydroxypropylcellulose) (HPC))?
A: 92 % of control and 96 % of control

Q: What about the T/C (dose: 8.5 mg/kg/injection, schedule: Q01DX005 (ip), vehicle: Klucel (hydroxypropylcellulose) (HPC)) of the same compound?
A: 88 % of control and 94 % of control

Q: And the T/C (dose: 68.0 mg/kg/injection, schedule: Q01DX005 (ip), vehicle: Klucel (hydroxypropylcellulose) (HPC))?
A: 86 % of control

Q: With CN(C)CCCNc1cc(O)c2c(c1O)C(=O)c1ccccc1C2=O as the compound, how does the T/C (dose: 12.5 mg/kg/injection, schedule: Q04DX003 (ip), vehicle: water) read?
A: 102 % of control

Q: What about the T/C (dose: 25.0 mg/kg/injection, schedule: Q01DX009 (ip), vehicle: water) of the same compound?
A: 109 % of control

Q: What about the T/C (dose: 25.0 mg/kg/injection, schedule: Q04DX003 (ip), vehicle: water) of the same compound?
A: 100 % of control

Q: What about the T/C (dose: 50.0 mg/kg/injection, schedule: Q01DX009 (ip), vehicle: water) of the same compound?
A: 120 % of control

Q: And the T/C (dose: 50.0 mg/kg/injection, schedule: Q04DX003 (ip), vehicle: water)?
A: 115 % of control

Q: What about the T/C (dose: 88.0 mg/kg/injection, schedule: Q01DX009 (ip), vehicle: other) of the same compound?
A: 110 % of control

Q: And the T/C (dose: 100.0 mg/kg/injection, schedule: Q01DX009 (ip), vehicle: water)?
A: 116 % of control

Q: What about the T/C (dose: 100.0 mg/kg/injection, schedule: Q04DX003 (ip), vehicle: water) of the same compound?
A: 103 % of control

Q: What about the T/C (dose: 133.0 mg/kg/injection, schedule: Q01DX009 (ip), vehicle: other) of the same compound?
A: 117 % of control

Q: And the T/C (dose: 200.0 mg/kg/injection, schedule: Q04DX003 (ip), vehicle: water)?
A: 111 % of control

Q: For CC(C)(CO)N(CCO)CCO, which T/C (dose: 50.0 mg/kg/injection, schedule: Q01DX005 (ip), vehicle: saline) is on record?
A: 106 % of control

Q: What about the T/C (dose: 100.0 mg/kg/injection, schedule: Q01DX005 (ip), vehicle: saline) of the same compound?
A: 106 % of control

Q: And the T/C (dose: 200.0 mg/kg/injection, schedule: Q01DX005 (ip), vehicle: saline)?
A: 106 % of control

Q: How did the T/C (dose: 25.0 mg/kg/injection, schedule: Q01DX009 (ip), vehicle: saline with Tween-80) turn out when CCCCCC(CN1CCCCC1)C(=O)/C=C/c1ccccc1 (stereo unspecified) was run?
A: 101 % of control

Q: And the T/C [1]?
A: 107 % of control

Q: What about the T/C [2] of the same compound?
A: 117 % of control

Q: For CC1=C(C(C)(C)C)C(=O)c2ccccc2C1=O, which T/C (dose: 50.0 mg/kg/injection, schedule: Q01DX005 (ip), vehicle: Klucel (hydroxypropylcellulose) (HPC)) is on record?
A: 100 % of control

Q: What about the T/C (dose: 100.0 mg/kg/injection, schedule: Q01DX005 (ip), vehicle: Klucel (hydroxypropylcellulose) (HPC)) of the same compound?
A: 103 % of control

Q: What about the T/C (dose: 200.0 mg/kg/injection, schedule: Q01DX005 (ip), vehicle: Klucel (hydroxypropylcellulose) (HPC)) of the same compound?
A: 107 % of control

Q: Which results are given for CCOC(=O)c1ccc(N=C=S)cc1?
A: T/C (dose: 6.25 mg/kg/injection, schedule: Q01DX009 (ip), vehicle: distilled water + Tween-80): 100 % of control; T/C (dose: 12.5 mg/kg/injection, schedule: Q01DX009 (ip), vehicle: distilled water + Tween-80): 100 % of control; T/C (dose: 25.0 mg/kg/injection, schedule: Q01DX009 (ip), vehicle: distilled water + Tween-80): 100 % of control and 111 % of control; T/C (dose: 50.0 mg/kg/injection, schedule: Q01DX009 (ip), vehicle: distilled water + Tween-80): 117 % of control; T/C (dose: 100.0 mg/kg/injection, schedule: Q01DX009 (ip), vehicle: distilled water + Tween-80): 109 % of control

Q: Which T/C (dose: 50.0 mg/kg/injection, schedule: Q01DX005 (ip), vehicle: saline with Tween-80) does the source give for CCOC(=O)C(NC(=O)C(Cl)Cl)C(O)c1ccccc1 (stereo unspecified) here?
A: 100 % of control

Q: What about the T/C (dose: 100.0 mg/kg/injection, schedule: Q01DX005 (ip), vehicle: saline with Tween-80) of the same compound?
A: 100 % of control

Q: And the T/C (dose: 200.0 mg/kg/injection, schedule: Q01DX005 (ip), vehicle: saline with Tween-80)?
A: 89 % of control

Q: What does the source list for CCOC(=O)c1ncc(OCC)o1?
A: T/C (dose: 50.0 mg/kg/injection, schedule: Q01DX009 (ip), vehicle: saline): 91 % of control; T/C (dose: 100.0 mg/kg/injection, schedule: Q01DX009 (ip), vehicle: saline): 89 % of control; T/C (dose: 200.0 mg/kg/injection, schedule: Q01DX009 (ip), vehicle: saline): 95 % of control

Q: How did the T/C [3] turn out when CCC12Nc3ccccc3C(CC)(C1=O)C(c1ccccc1)=C2c1ccccc1 (stereo unspecified) was run?
A: 115 % of control

Q: What about the T/C [4] of the same compound?
A: 106 % of control

Q: What about the T/C (dose: 200.0 mg/kg/injection, schedule: Q01DX009 (ip), vehicle: Klucel (hydroxypropylcellulose) (HPC)) of the same compound?
A: 115 % of control

Q: With CCOC(=O)NCNC(=O)OCC as the compound, how does the T/C [3] read?
A: 100 % of control

Q: And the T/C [4]?
A: 102 % of control

Q: And the T/C (dose: 100.0 mg/kg/injection, schedule: Q04DX002 (ip), vehicle: Klucel (hydroxypropylcellulose) (HPC))?
A: 117 % of control

Q: And the T/C (dose: 200.0 mg/kg/injection, schedule: Q04DX002 (ip), vehicle: Klucel (hydroxypropylcellulose) (HPC))?
A: 107 % of control

Q: And the T/C (dose: 400.0 mg/kg/injection, schedule: Q04DX002 (ip), vehicle: Klucel (hydroxypropylcellulose) (HPC))?
A: 110 % of control

Q: Which results are given for CSc1nnc(CCC(=O)Nc2c(C)cccc2C(C)(C)C)o1?
A: T/C (dose: 60.0 mg/kg/injection, schedule: Q01DX005 (ip), vehicle: saline with Tween-80): 104 % of control; T/C (dose: 120.0 mg/kg/injection, schedule: Q01DX005 (ip), vehicle: saline with Tween-80): 99 % of control; T/C (dose: 240.0 mg/kg/injection, schedule: Q01DX005 (ip), vehicle: saline with Tween-80): 91 % of control

Q: C=C(C)C1C/C=C2/C(=O)OC(CC3(C)CC(=O)C(CC(=O)C1)O3)C2O (stereo unspecified) was tested. Which T/C (dose: 4.0 mg/kg/injection, schedule: Q01DX009 (ip), vehicle: Klucel (hydroxypropylcellulose) (HPC)) did it give?
A: 101 % of control

Q: And the T/C (dose: 8.0 mg/kg/injection, schedule: Q01DX009 (ip), vehicle: Klucel (hydroxypropylcellulose) (HPC))?
A: 101 % of control

Q: What about the T/C (dose: 16.0 mg/kg/injection, schedule: Q01DX009 (ip), vehicle: Klucel (hydroxypropylcellulose) (HPC)) of the same compound?
A: 104 % of control

Q: And the T/C (dose: 32.0 mg/kg/injection, schedule: Q01DX009 (ip), vehicle: Klucel (hydroxypropylcellulose) (HPC))?
A: 101 % of control

Q: How did the T/C (dose: 11.25 mg/kg/injection, schedule: Q01DX009 (ip), vehicle: saline with Tween-80) turn out when C/C=C1/CN2CCC34c5ccccc5N(C(C)=O)C3C(CO)C1CC24 (stereo unspecified) was run?
A: 106 % of control

Q: And the T/C (dose: 22.5 mg/kg/injection, schedule: Q01DX009 (ip), vehicle: saline with Tween-80)?
A: 100 % of control

Q: And the T/C (dose: 45.0 mg/kg/injection, schedule: Q01DX009 (ip), vehicle: saline with Tween-80)?
A: 102 % of control

Q: What about the T/C (dose: 90.0 mg/kg/injection, schedule: Q01DX009 (ip), vehicle: saline with Tween-80) of the same compound?
A: 100 % of control

Q: Which results are given for NNC(=O)Cc1cccc2ccc(Cl)cc12?
A: T/C (dose: 60.0 mg/kg/injection, schedule: Q01DX005 (ip), vehicle: Klucel (hydroxypropylcellulose) (HPC)): 92 % of control; T/C (dose: 120.0 mg/kg/injection, schedule: Q01DX005 (ip), vehicle: Klucel (hydroxypropylcellulose) (HPC)): 88 % of control

Q: Which results are given for CC(=O)OCC(OC(C)=O)C(OC(C)=O)C(OC1OC(COC(C)=O)C(OC(C)=O)C(OC(C)=O)C1OC(C)=O)C(COC(C)=O)OC(C)=O (stereo unspecified)?
A: T/C (dose: 50.0 mg/kg/injection, schedule: Q01DX005 (ip), vehicle: suspension in saline): 97 % of control; T/C (dose: 100.0 mg/kg/injection, schedule: Q01DX005 (ip), vehicle: suspension in saline): 91 % of control; T/C (dose: 200.0 mg/kg/injection, schedule: Q01DX005 (ip), vehicle: suspension in saline): 99 % of control

Q: Which results are given for O=C(O)CCCCCCCCCCC1C=CCC1 (stereo unspecified)?
A: T/C (dose: 100.0 mg/kg/injection, schedule: Q04DX003 (ip), vehicle: saline): 93 % of control; T/C (dose: 200.0 mg/kg/injection, schedule: Q04DX003 (ip), vehicle: saline): 93 % of control; T/C (dose: 400.0 mg/kg/injection, schedule: Q04DX003 (ip), vehicle: saline): 93 % of control

Q: Cc1cc(C(=O)O)c(C)c([N+](=O)[O-])c1 was tested. Which T/C [1] did it give?
A: 88 % of control

Q: What about the T/C [2] of the same compound?
A: 104 % of control

Q: What about the T/C (dose: 200.0 mg/kg/injection, schedule: Q01DX009 (ip), vehicle: saline with Tween-80) of the same compound?
A: 98 % of control

Q: What about the T/C (dose: 400.0 mg/kg/injection, schedule: Q01DX009 (ip), vehicle: saline with Tween-80) of the same compound?
A: 100 % of control

Q: With CCCCCCNP(=O)(N1CC1)N1CC1 as the compound, how does the T/C (dose: 3.13 mg/kg/injection, schedule: Q04DX003 (ip), vehicle: saline) read?
A: 104 % of control

Q: And the T/C (dose: 10.0 mg/kg/injection, schedule: Q01DX009 (ip), vehicle: saline)?
A: 177 % of control

Q: And the T/C (dose: 12.5 mg/kg/injection, schedule: Q04DX003 (ip), vehicle: saline with Tween-80)?
A: 159 % of control

Q: And the T/C (dose: 20.0 mg/kg/injection, schedule: Q01DX009 (ip), vehicle: saline)?
A: 227 % of control

Q: What about the T/C (dose: 25.0 mg/kg/injection, schedule: Q04DX003 (ip), vehicle: saline with Tween-80) of the same compound?
A: 218 % of control

Q: Which results are given for N.O=S(=O)(O)O.[Al]?
A: T/C [1]: 100 % of control; T/C [2]: 100 % of control

Q: Which results are given for C=C(C)C1Cc2c(ccc3c(=O)c4c(oc23)c(=O)oc2cc(OC)c(OC)cc24)O1 (stereo unspecified)?
A: T/C (dose: 100.0 mg/kg/injection, schedule: Q04DX003 (ip), vehicle: saline with Tween-80): 103 % of control; T/C (dose: 200.0 mg/kg/injection, schedule: Q04DX003 (ip), vehicle: saline with Tween-80): 98 % of control; T/C (dose: 400.0 mg/kg/injection, schedule: Q04DX003 (ip), vehicle: saline with Tween-80): 105 % of control
